Measured values as given in US9957214B2, “Multifunctional radical quenchers” (ARIZONA BOARD OF REGENTS ON BEHALF OF ARIZONA STATE …, priority 2012, dated 2018).

Legend:
FRDA lymphocytes = assay: Suppression of lipid peroxidation (C11-BODIPY581/591, FACS) in FRDA lymphocytes treated with diethyl maleate; format: cell-based; conditions: Lymphocyte, DEM, read-out: Scavenging activity (%), suppression of lipid peroxidation
Text: Several methods for assaying lipid peroxidation in vitro have been developed (Kuypers et al. (1987) Biochim Biophys Acta. 25, 266-274; Pap et al. (1999) FEBS Lett. 453, 278-282; Drummen et al. (2002) Free RadicBiol Med. 33, 473-490). Almost all of these methods are based on inhibition of free radical-induced oxidation reactions. A widely used fluorescence assay for lipid peroxidation uses lipid soluble cis-parinaric acid as a probe. cis-parinaric acid loses its fluorescence (λexc/em: 320/432 nm) upon interaction with peroxyl radicals and retains its fluorescence in the presence of radical quenchers. cis-parinaric acid is, however, air sensitive, photolabile and absorbs light in the UV region of the spectrum (at ˜320 nm). […] In practical terms, the results obtained using cis-parinaric as a probe for lipid peroxidation are confounded due to the overlapping of the compounds emission spectra with the cis-parinaric emission spectrum. C11-BODIPY^581/591 Oxidation to Measure Lipid Peroxidation To overcome the problem of spectral overlap using cis-parinaric acid, a fluorescence assay for lipid peroxidation using a lipophilic probe belonging to the BODIPY class of fluorescent dyes was used C11-BODIPY^581/591 (4,4-difluoro-5(4-phenyl-1,3-butadienyl)-4-bora-3a, 4a-diaza-s-indacene-3-propionic acid) fluorescent shifts from red to green upon oxidation. C11-BODIPY^581/591 (Molecular Probes, Eugene, Oreg., USA) stock solution concentrations were determined by measuring the absorption of C11-BODIPY^581/591 at 582 nm using a molar extinction coefficient of 140,000 mol^−1 cm^−1 (R. P. Haugland, (1999) Handbook of Fluorescent Probes and Research Chemicals, Molecular Probes, Inc., Eugene, Oreg.). The lipid peroxidation inducer 2,2′-Azobis (2-amidino-propane dihydrochloride) (AAPH) and the antioxidant compound α-tocopherol (α-TOH) were obtained from Sigma (St. Louis, Mo., USA). Phospholipid bilayers were prepared from 1-stearoyl-2-oleoyl-phosphatidylcholine (SOPC) and 1,2-dilinoleoyl-phosphatidylcholine (DLPC) and were purchased from Avanti® polar lipids, Inc., (Alabaster, Ala., USA). Preparation of Liposomes Phosphotidylcholine (PC) liposomes were prepared as described before (Guey-Shuang et al. (1982) Lipids. 17, 403-413). Briefly, DLPC (25 mg) were dissolved in chloroform and the solvent was removed by nitrogen evaporation (˜2 hours) to give a thin film of PC in a round bottom flask. The lipid film was hydrated with 50 mL of 10 mM Tris-HCl (pH 7.4), 100 mM KCl, shaken and sonicated for 15 seconds. The liposomes obtained were filtered several times through […] membrane filter. Measurement of C11-BODIPY^581/591 Oxidation C11-BODIPY^581/591 was incorporated into liposomes and oxidized by peroxyl radicals derived from the decomposition of AAPH in the presence and absence of compounds. Liposomes (1 mg/mL), suspended in 10 mM Tris-HCl (pH 7.4), 100 mM KCl, were transferred to a quartz 1 mL cuvette and placed in a Varian Cary Eclipse fluorometer (Varian, Cary, N.C.) equipped with a thermostatted cuvette holder at 40° C. Liposomes were pre-incubated for 10 min with 200 nM C11-BODIPY^581/591 to allow their incorporation into the lipid phase of the liposomes. After the addition of AAPH (10 mM) the decay of the red fluorescence was followed at λ exc=570 nm, λ em=600 nm. Relative fluorescence units were normalized to 100% intensity. Results obtained were verified by repeating experiments N=3 independent experiments. Measurement of C11-BODIPY^581/591 Oxidation in Cell Culture A quantitative FACS analysis of lipid peroxidation of FRDA lymphocytes, which had been treated with diethyl maleate following incubation in the presence and absence of the test compounds, was measured as described (Khdour et al. (2011) Pharmaceut. Res. 28, 2896-2909). Briefly, FRDA lymphocytes (5×10^5 cell/mL) were treated with the test compounds at final concentrations of 5 and 10 μM and incubated at 37° C. for 16 h in a humidified atmosphere containing 5% CO2 in air. […]

[1] = system: Friedreich's ataxia lymphoblast cell line GM15850; assay: Cytoprotection (trypan blue exclusion assay) of DEM-treated FRDA lymphocytes; format: cell-based; conditions: Homo sapiens, GM15850, DEM alone 18 ± 10% viability, read-out: Cytoprotection (cell viability, % of untreated control)
In short: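 GM15850 FRDA lymphoblasts at 5×10^5 cells/mL pre-incubated with test compounds for 17 h at 37 °C, then exposed to 5 mM DEM to deplete GSH. Viability by 0.4% trypan blue exclusion, ≥500 cells counted per group, expressed as % of non-DEM control; means±S.E.M., n=3.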

[2] = system: NADH oxidase (complexes I, III and IV); assay: NADH oxidase activity (complexes I, III and IV) in submitochondrial particles; format: biochemical, bovine

Row | SMILES | inhibition at 5 µM (FRDA lymphocytes) [%] | inhibition at 10 µM (FRDA lymphocytes) [%] | viability at 1 µM [1] [%] | viability at 5 µM [1] [%] | NADH oxidase activity (Complex I, III, IV) % ([2]; 1 μM) | NADH oxidase activity (Complex I, III, IV) % ([2]; 5 μM) | NADH oxidase activity (Complex I, III, IV) % ([2]; 10 μM) [%] | viability at 0.5 µM [1] [%] | viability at 2.5 µM [1] [%] | inhibition at 1 µM (FRDA lymphocytes; 1 μM) [%] | viability at 0.1 µM ([1]; 0.1 μM) [%]
1 | CCCCCCCCCCCCCC1=C(OC)C(=O)C(C)=C(NCCCC(=O)OC(C)(C)C)C1=O [Compound 43, tert-butyl 4-(4-methoxy-2-methyl-3,6-dioxo-5-tridecylcyclohexa-1,4-dienylamino)butanoate] | 61 ± 4 | 75 ± 2 | 67 ± 5 | 91 ± 6 | 87 ± 2^ % | 85 ± 1^ % | 80 ± 1 |  |  |  | 
2 | CCCCCCCCCCCCCC1=C(OC)C(=O)C=C(NCCCC(=O)OCCCCCC)C1=O [Compound 18, Hexyl 4-(4-methoxy-3,6-dioxo-5-tridecylcyclohexa-1,4-dienylamino)butanoate] | 81 ± 1.6 | 98 |  | 90 ± 2 | 54 ± 5.0% | 27 ± 3.0% |  |  |  |  | 
3 | CCCCCCCCCCCCCC1=C(OC)C(=O)C(C)=C(NCCCC(=O)OCCCC)C1=O [Compound 46, Butyl 4-(4-methoxy-2-methyl-3,6-dioxo-5-tridecylcyclohexa-1,4-dienylamino)butanoate] | 60 ± 1 | 70 ± 3 | 63 ± 4 | 95 ± 3 | 86 ± 2^ % | 84 ± 4^ % | 68 ± 1 |  |  |  | 
4 | CCCCCCCCCCCCCC1=C(OC)C(=O)C(C)=C(NCCCC(=O)OCCCCCC)C1=O [Compound 49, Hexyl 4-(4-methoxy-2-methyl-3,6-dioxo-5-tridecylcyclohexa-1,4-dienylamino)butanoate] | 8 ± 3 | 13 ± 3 | 16 ± 4 | 87 ± 4 | 74 ± 2^ % | 83 ± 2^ % | 74 ± 2 |  |  |  | 
5 | CCCCCCCCCCCCCC1=C(NCCCC(=O)OCCCCCC)C(=O)C(C)=C(NCCCC(=O)OCCCCCC)C1=O [Compound 50, 2,5-bis(hexyl 4-aminobutanoate)-3-methyl-6-tridecylcyclohexa-2,5-diene-1,4-dione] | 18 ± 1 | 23 ± 4 | 11 ± 2 | 91 ± 3 | 85 ± 1^ % | 78 ± 6^ % | 70 ± 3 |  |  |  | 
6 | CCCCCCCCCCCCCC1=C(OC)C(=O)C=C(NCCCC(=O)OC(C)(C)C)C1=O [Compound 7, tert-butyl 4-(4-methoxy-3,6-dioxo-5-tridecylcyclohexa-1,4-dienylamino)butanoate] | 72 ± 1.8 | 86 | 80 | 93 ± 4 | 84 ± 1.0% | 77 ± 4.0% |  | 80 | 84 ± 5 |  | 
7 | COC1=C2CCCCCCCCCCCCCCCNC(=CC1=O)C2=O [Compound 40] | 72 | 83 |  | 92 ± 3.5 | 95 ± 3^ % | 85 ± 1^ % | 70 ± 1 | 69 ± 2.3 | 83 | 29 ± 4.7 | 36 ± 4.3
